From paper PMC12679550 (ACS Chemical Neuroscience, 2025)
“And” between values parts separate entries of the source, which are not always exact repeats. Equal entries are not always repeated. Where two headings read alike, the source gives them in different places.

What was measured:
[1] = target: T1, α1AR (Homo sapiens, UniProt P35348)
T1 sequence (P35348 1-466): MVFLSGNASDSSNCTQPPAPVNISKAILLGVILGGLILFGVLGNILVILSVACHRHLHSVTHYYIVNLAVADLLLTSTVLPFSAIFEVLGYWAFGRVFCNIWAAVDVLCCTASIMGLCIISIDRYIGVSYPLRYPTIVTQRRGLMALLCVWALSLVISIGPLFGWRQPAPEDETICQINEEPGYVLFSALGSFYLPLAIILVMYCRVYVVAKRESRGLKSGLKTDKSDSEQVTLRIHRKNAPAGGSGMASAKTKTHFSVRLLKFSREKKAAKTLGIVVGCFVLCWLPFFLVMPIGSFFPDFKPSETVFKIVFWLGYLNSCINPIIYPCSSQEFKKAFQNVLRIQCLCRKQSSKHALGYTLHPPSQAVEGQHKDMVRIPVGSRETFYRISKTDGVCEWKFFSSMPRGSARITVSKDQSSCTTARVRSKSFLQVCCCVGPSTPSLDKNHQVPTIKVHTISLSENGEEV

[2] = male mice, 165 mg/kg PO; cited from earlier work

mitragynine
EC50 ([1]; read-out: EC50, α11, α1AR-Gα11): 3.16 µM
EC50 ([1]; read-out: EC50 at α1AR-Gα11 (abstract), partial agonist): ~3 µM
Emax as percent of clonidine's maximum response, α11 ([1]; α1AR-Gα11): 27%
EC50, αq ([1]; α1AR-Gαq): inactive
Peak brain concentration [2]: approximately 35 μg/g of wet brain tissue and ~88 μM
